# Results from patent US5516797A, “Immunosuppressive compounds” (Vertex Pharmaceuticals, Incorporated, priority 1994, dated 1996).
# Biological target: FK-506 binding protein (FKBP) (Homo sapiens, UniProt P62942)
# Test: Inhibition of PPIase (rotamase) enzyme activity of FKBP (apparent Ki)
# Format: biochemical
# Conditions: substrate N-succinylAla-Ala-Pro-Phe-p-nitroanilide, chymotrypsin-coupled
# From the text: The inhibition of the PPIase (rotamase) enzyme activity of the FKBP (apparent "Ki" values) can also be measured according to the methods described by either Harding, M. W. et al., Nature 341:758-760 (1989) or Siekierka, J. J. et al., Nature 341:755-757 (1989). The cis-trans isomerization of the proline-alanine peptide bond in a model substrate, N-succinylAla-Ala-Pro-Phe-p-nitroanilide, is monitored spectrophotometrically in a coupled assay with chymotrypsin, which releases 4-nitroanilide from the trans form of the substrate. Fischer, G. et al., Nature 337:476-478 (1989). The inhibitory effect of the addition of different concentrations of inhibitor on the extent of the reaction is determined, and analysis of the change in first order rate constant as a function of inhibitor concentration yields an estimate of the apparent Ki value.
# Chain of FK-506 binding protein (FKBP) (P62942 whole entry): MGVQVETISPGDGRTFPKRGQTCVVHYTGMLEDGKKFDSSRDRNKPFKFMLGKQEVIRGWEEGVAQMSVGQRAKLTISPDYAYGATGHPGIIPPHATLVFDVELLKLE
row,SMILES,Ki [µM]
1,C=CCOC(=O)[C@@H]1CCCCN1C(=O)C(=O)c1ccccc1 [Compound 4],8
2,C/C(=C\c1ccc(O)cc1)COC(=O)[C@@H]1CCCCN1C(=O)C(=O)c1ccccc1 [Compound 24],6
3,COC(=O)C(=O)N1CCCC[C@H]1C(=O)OC/C(C)=C/c1ccc(OC)c(OC)c1 [Compound 37],10
4,COC(=O)C(=O)N1CCCC[C@H]1C(=O)OC/C(C)=C/c1ccc(O)cc1 [Compound 38],60
5,O=C(C(=O)N1CCC[C@H]1C(=O)OCc1ccccc1)c1ccccn1 [Compound 43],300
6,O=C(C(=O)N1CCCC[C@H]1C(=O)OCc1ccccc1)c1ccc(F)c(F)c1 [Compound 44],3
7,O=C(C(=O)N1CCCC[C@H]1C(=O)OCc1ccccc1)c1ccccc1C(F)(F)F [Compound 55],5
8,O=C(C(=O)N1CCCC[C@H]1C(=O)OCc1ccc(-c2ccccc2)cc1)c1ccccc1 [Compound 58],5
9,COc1cc(C(=O)C(=O)N2CCCC[C@H]2C(=O)OCc2ccc(-c3ccccc3)cc2)cc(OC)c1OC [Compound 59],2
10,COc1ccc(OC)c(/C=C/C(=O)N2CCC[C@H]2C(=O)OCc2ccccc2)c1 [Compound 113],10
11,COc1cc(OC)c(OC)cc1/C=C/C(=O)N1CCC[C@H]1C(=O)OCc1ccccc1 [Compound 114],25
12,O=C(OCc1ccccc1)[C@@H]1CCCCN1C(=O)/C=C/c1ccco1 [Compound 118],2.5
13,O=C(OCc1ccccc1)[C@@H]1CCCCN1C(=O)/C=C/c1ccoc1 [Compound 119],2.5
14,O=C(OCc1ccccc1)[C@@H]1CCCCN1C(=O)/C=C/c1cccnc1 [Compound 121],25
15,C=CC(=O)N1CCCC[C@H]1C(=O)OCc1ccccc1 [Compound 122],300
16,O=C(OCc1ccccc1)[C@@H]1CCCCN1C(=O)/C=C/c1ccccc1 [Compound 123],11
17,C[C@@H](C(=O)OCc1ccccc1)N(C)C(=O)/C=C/c1ccc2c(c1)OCO2 [Compound 131],50
18,"C[C@H](NC(=O)/C=C/c1ccc2c(c1)OCO2)C(=O)OCc1ccccc1 [Compound 132, (S)-3-(3,4-Methylenedioxyphenyl)-prop-2-enoylalanine benzyl ester]",60
